# Laboratory results taken from US20160101072A1, “Therapeutic uses of enzyme inhibitors” (Proximagen Limited, priority 2013, published 2016).
# Marks after values point to notes of the source that are not given here.
# How the values were obtained:
# CD11b+ myeloid cells = assay: Cell sorting: recruitment of CD11b+ myeloid cells into muscles of mdx mice; type: in vivo, mouse; details: mdx mice muscle; for % change compared to vehicle (CD11b+ myeloid cells) / % of viable cells (CD11b+ myeloid cells): 4 weeks
# Description: (§1) In this example, labelled antibodies were used to assess infiltration of inflammatory myeloid and lymphoid cells into muscles of mdx mice following treatment of the mice with different doses of the glucocorticoid prednisolone, and the VAP-1 inhibitors carbidopa and benserazide. CD11b is a transmembrane glycoprotein which is expressed on the surface of granulocytes (including neutrophils and eosinophils), monocytes, NK cells, dendritic cells, tissue macrophages and subsets of T and B cells. Labelled antibody to CD11b was used to assess infiltration of inflammatory myeloid cells into muscles of mdx mice. Labelled antibody to Ly6C was used to assess infiltration of pro- and anti-inflammatory monocytes into muscles of mdx mice. Labelled antibody to CD4 and CD8a antigen was used to assess infiltration of Th cells (CD4^+CD8^-) and double negative (CD4^-CD8^-) T cells into muscles of mdx mice. A total of a ninety C57BU10ScSn-Dmdmdx/J male mice, 3 weeks of age (+/-3days), were transferred to the in vivo research laboratory in Bar Harbor, Me. Additional ten […] male mice 3 weeks of age (+/-3 days) were also transferred and served as a wild-type control group. The mice were ear notched for identification and housed in ventilated polysulfone cages with HEPA filtered air at a density of 3-4 mice per cage. The animal room was lit entirely with artificial fluorescent lighting on controlled 12 hour light/dark cycle (6 a.m. to 6 p.m. light). […] The animal room was set for 15 air exchanges per hour. Filtered tap water acidified to a pH of 2.8 to 3.2 was provided ad libitum. […] Prior to study initiation, mice were acclimated for 3 days. Mice were tested for grip strength and in the open field at ages 25 and 26 days, and drug regimen was initiated at age 27 days. Mice were monitored twice weekly for clinical observations and body weights. […] 24 hours after the second open field tests, blood was collected by retro-orbital bleeding, and mice were humanely euthanized by CO2 asphyxiation. One triceps surae was collected fresh and processed for immune cell sorting, one tibialis anterior was preserved in RNALater for RNA extraction, one whole hind limb and the diaphragm were fixed in 2% paraformaldehyde overnight at 4° C. for paraffin embedding and histology stains. For immune cell sorting, muscle samples were enzymatically and mechanically dissociated following manufacturer instructions (Skeletal Muscle Dissociation KitCatalog no. 130-098-305, Miltenyi Biotec). Cells were stained with the following antibodies: [table] Stained cells were analyzed on a BD LSR II cytometer and counts of different populations were expressed in percentage of the number of live cells counted.
# [1] = test system: CD11b+Ly6Chigh profibrotic myeloid cells (Ly6C+ monocytes); assay: Cell sorting: recruitment of CD11b+Ly6Chigh profibrotic myeloid cells into muscles of mdx mice; type: in vivo, mouse; details: mdx mice muscle; for % change compared to vehicle (CD11b+Ly6Chigh profibrotic myeloid cells) / % of viable cells (CD11b+Ly6Chigh profibrotic myeloid cells): 4 weeks
# Description: as §1
# [2] = test system: CD11b+Ly6Clow anti-fibrotic myeloid cells (Ly6C- monocytes); assay: Cell sorting: recruitment of CD11b+Ly6Clow anti-fibrotic myeloid cells into muscles of mdx mice; type: in vivo, mouse; details: mdx mice muscle; for % change compared to vehicle (CD11b+Ly6Clow anti-fibrotic myeloid cells) / % of viable cells (CD11b+Ly6Clow anti-fibrotic myeloid cells): 4 weeks
# Description: as §1
# TNF mRNA = assay: mRNA quantification (RT PCR) of TNF in muscles of mdx mice; type: in vivo, mouse; details: for TNF mRNA level: mdx mice muscle, GAPDH as normalizer; for effect on the level of TNF mRNA: treatment alone, mdx mouse muscle
# Description: (§2) A total of a ninety C57BU10ScSn-Dmdmdx/J male mice, 3 weeks of age (+/-3days), were transferred to the in vivo research laboratory in Bar Harbor, Me. Additional ten […] male mice 3 weeks of age (+/-3 days) were also transferred and served as a wild-type control group. The mice were ear notched for identification and housed in ventilated polysulfone cages with HEPA filtered air at a density of 3-4 mice per cage. The animal room was lit entirely with artificial fluorescent lighting on controlled 12 hour light/dark cycle (6 a.m. to 6 p.m. light). […] The animal room was set for 15 air exchanges per hour. Filtered tap water acidified to a pH of 2.8 to 3.2 was provided ad libitum. […] Prior to study initiation, mice were acclimated for 3 days. Mice were tested for grip strength and in the open field at ages 25 and 26 days, and drug regimen was initiated at age 27 days. Mice were monitored twice weekly for clinical observations and body weights. […] 24 hours after the second open field tests, blood was collected by retro-orbital bleeding, and mice were humanely euthanized by CO2 asphyxiation. One triceps surae was collected fresh and processed for immune cell sorting, one tibialis anterior was preserved in RNALater for RNA extraction, one whole hind limb and the diaphragm were fixed in 2% paraformaldehyde overnight at 4° C. for paraffin embedding and histology stains. Total RNAs were extracted with a modification of the Trizol method, reverse transcribed, and mRNAs of TGFβ, and the following inflammation markers were quantified by the SYBR green method with GAPDH as a normalizer: […]
# Lgals3 mRNA = assay: mRNA quantification (RT PCR) of Lgals3 in muscles of mdx mice; type: in vivo, mouse; details: for Lgals3 mRNA level: mdx mice muscle, GAPDH as normalizer; for effect on the level of Lgals3 mRNA: treatment alone, mdx mouse muscle
# Description: as §2
# CD53 mRNA = assay: mRNA quantification (RT PCR) of CD53 in muscles of mdx mice; type: in vivo, mouse; details: for CD53 mRNA level: mdx mice muscle, GAPDH as normalizer
# Description: as §2
# CD48 mRNA = assay: mRNA quantification (RT PCR) of CD48 in muscles of mdx mice; type: in vivo, mouse; details: for CD48 mRNA level: mdx mice muscle, GAPDH as normalizer; for effect on the level of CD48 mRNA: treatment alone, mdx mouse muscle
# Description: as §2
# CD11b mRNA = assay: mRNA quantification (RT PCR) of CD11b in muscles of mdx mice; type: in vivo, mouse; details: for CD11b mRNA level: mdx mice muscle, GAPDH as normalizer
# Description: as §2
# TGFβ mRNA = assay: mRNA quantification (RT PCR) of pro-fibrotic growth factor TGFβ in muscles of mdx mice; type: in vivo, mouse; details: for % change compared to vehicle (TGFβ mRNA) / TGFβ mRNA: mdx mice muscle; for TGFβ mRNA: GAPDH as normalizer
# Description: as §2
# IL-6 mRNA = assay: mRNA quantification (RT PCR) of IL-6 in muscles of mdx mice; type: in vivo, mouse; details: mdx mice muscle
# Description: as §2
# Mpeg1 mRNA = assay: mRNA quantification (RT PCR) of Mpeg1 in muscles of mdx mice; type: in vivo, mouse; details: mdx mice muscle
# Description: as §2
# Ly6C1 mRNA = assay: mRNA quantification (RT PCR) of Ly6C1 in muscles of mdx mice; type: in vivo, mouse; details: mdx mice muscle
# Description: as §2
# [3] = test system: CD11b+Ly6Chigh profibrotic : CD11b+Ly6Clow anti-fibrotic myeloid cells; assay: Ratio of profibrotic to anti-fibrotic myeloid cells in mdx mouse muscle; type: in vivo; details: both doses
# Description: In this example, labelled antibodies were used to assess infiltration of inflammatory myeloid and lymphoid cells into muscles of mdx mice following treatment of the mice with different doses of the glucocorticoid prednisolone, and the VAP-1 inhibitors carbidopa and benserazide. […] Labelled antibody to CD11b was used to assess infiltration of inflammatory myeloid cells into muscles of mdx mice. Labelled antibody to Ly6C was used to assess infiltration of pro- and anti-inflammatory monocytes into muscles of mdx mice. Labelled antibody to CD4 and CD8a antigen was used to assess infiltration of Th cells (CD4^+CD8^−) and double negative (CD4^−CD8^−) T cells into muscles of mdx mice.
# A total of a ninety C57BU10ScSn-Dmdmdx/J male mice, 3 weeks of age (+/−3days), were transferred to the in vivo research laboratory in Bar Harbor, Me. Additional ten C57BU10ScSnJ male mice 3 weeks of age (+/−3 days) were also transferred and served as a wild-type control group. The mice were ear notched for identification and housed in ventilated polysulfone cages with HEPA filtered air at a density of 3-4 mice per cage. […]
# [4] = test system: lymphoid CD4+CD8- T cells; assay: Cell sorting: recruitment of lymphoid CD4+CD8- T cells into muscles of mdx mice; type: in vivo, mouse; details: mdx mice muscle
# Description: as §1
# [5] = test system: lymphoid CD4-CD8- (double negative, DN) T cells; assay: Cell sorting: recruitment of lymphoid CD4-CD8- (double negative, DN) T cells into muscles of mdx mice; type: in vivo, mouse; details: mdx mice muscle
# Description: as §1
# [6] = treatment alone, mdx mouse muscle
# [7] = 100 mg/kg po twice/day, 4 weeks
# [8] = doses as in the table (carbidopa 100, benserazide 20 mg/kg po twice/day; prednisolone 1 mg/kg ip once/day)
# [9] = mdx mouse muscle, compared to vehicle
smiles,measurement,setting,value
"C[C@]12C=CC(=O)C=C1CC[C@@H]1[C@@H]2[C@@H](O)C[C@@]2(C)[C@H]1CC[C@]2(O)C(=O)CO [Prednisolone, prednisolone]",% change compared to vehicle (CD11b+ myeloid cells),CD11b+ myeloid cells; 0.2 mg/kg ip once/day,+14.8%
same,% of viable cells (CD11b+ myeloid cells),CD11b+ myeloid cells; 0.2 mg/kg ip once/day,41.8%
same,% change compared to vehicle (CD11b+ myeloid cells),CD11b+ myeloid cells; 1 mg/kg ip once/day,+20.9%
same,% of viable cells (CD11b+ myeloid cells),CD11b+ myeloid cells; 1 mg/kg ip once/day,44%
same,% change compared to vehicle (CD11b+Ly6Chigh profibrotic myeloid cells),[1]; 0.2 mg/kg ip once/day,+0.6%
same,% of viable cells (CD11b+Ly6Chigh profibrotic myeloid cells),[1]; 0.2 mg/kg ip once/day,7.37%
same,% change compared to vehicle (CD11b+Ly6Chigh profibrotic myeloid cells),[1]; 1 mg/kg ip once/day,−38.3%
same,% of viable cells (CD11b+Ly6Chigh profibrotic myeloid cells),[1]; 1 mg/kg ip once/day,4.52%
same,effect on recruitment of profibrotic myeloid cells compared with vehicle,[1]; both doses,no statistically significant effect
same,% change compared to vehicle (CD11b+Ly6Clow anti-fibrotic myeloid cells),[2]; 0.2 mg/kg ip once/day,+0.4%
same,% of viable cells (CD11b+Ly6Clow anti-fibrotic myeloid cells),[2]; 0.2 mg/kg ip once/day,27.3%
same,% change compared to vehicle (CD11b+Ly6Clow anti-fibrotic myeloid cells),[2]; 1 mg/kg ip once/day,+0.7%
same,% of viable cells (CD11b+Ly6Clow anti-fibrotic myeloid cells),[2]; 1 mg/kg ip once/day,27.4%
same,effect on recruitment of anti-fibrotic myeloid cells compared with vehicle,[2]; both doses,no statistically significant effect
same,TNF mRNA level,TNF mRNA; 0.2 mg/kg ip once/day,0.92
same,effect on the level of TNF mRNA,TNF mRNA,No significant effect
same,Lgals3 mRNA level,Lgals3 mRNA; 0.2 mg/kg ip once/day,1.2
same,effect on the level of Lgals3 mRNA,Lgals3 mRNA,no significant effect
same,CD53 mRNA level,CD53 mRNA; 0.2 mg/kg ip once/day,1.33
same,effect on the level of CD53 mRNA,CD53 mRNA; [6],not significantly affected
same,CD48 mRNA level,CD48 mRNA; 0.2 mg/kg ip once/day,1
same,effect on the level of CD48 mRNA,CD48 mRNA,no significant effect
same,CD11b mRNA level,CD11b mRNA; 0.2 mg/kg ip once/day,1.42
same,effect on the level of CD11b mRNA,CD11b mRNA; [6],not significantly affected
same,% change compared to vehicle (TGFβ mRNA),TGFβ mRNA; 0.2 mg/kg ip once/day,48.8%
same,TGFβ mRNA,TGFβ mRNA; 0.2 mg/kg ip once/day,1.80
same,effect on the level of TGFβ mRNA,"TGFβ mRNA; prednisolone alone, muscle of mdx mice",increased
same,effect on IL-6 mRNA level,IL-6 mRNA,No effects
same,effect on Mpeg1 mRNA level,Mpeg1 mRNA,No effects
same,effect on Ly6C1 mRNA level,Ly6C1 mRNA,No effects
C[C@@](Cc1ccc(O)c(O)c1)(NN)C(=O)O [Carbidopa],% change compared to vehicle (CD11b+ myeloid cells),CD11b+ myeloid cells; 50 mg/kg po twice/day,−55.2%
same,% of viable cells (CD11b+ myeloid cells),CD11b+ myeloid cells; 50 mg/kg po twice/day,16.3** %
same,% change compared to vehicle (CD11b+ myeloid cells),CD11b+ myeloid cells; 100 mg/kg po twice/day,−49.2%
same,% of viable cells (CD11b+ myeloid cells),CD11b+ myeloid cells; 100 mg/kg po twice/day,18.5** %
same,reduction of myeloid cell recruitment compared with vehicle,CD11b+ myeloid cells; both carbidopa doses (columns 5 and 6 of FIG. 4),approximately 50%
same,% change compared to vehicle (CD11b+Ly6Chigh profibrotic myeloid cells),[1]; 50 mg/kg po twice/day,−86.4%
same,% of viable cells (CD11b+Ly6Chigh profibrotic myeloid cells),[1]; 50 mg/kg po twice/day,1.75** %
same,% change compared to vehicle (CD11b+Ly6Chigh profibrotic myeloid cells),[1]; 100 mg/kg po twice/day,−82.1%
same,% of viable cells (CD11b+Ly6Chigh profibrotic myeloid cells),[1]; 100 mg/kg po twice/day,1.31** %
same,reduction of profibrotic myeloid cell recruitment compared with vehicle,[1]; at both doses tested,over 80%
same,% change compared to vehicle (CD11b+Ly6Clow anti-fibrotic myeloid cells),[2]; 50 mg/kg po twice/day,−49.3%
same,% of viable cells (CD11b+Ly6Clow anti-fibrotic myeloid cells),[2]; 50 mg/kg po twice/day,13.8** %
same,% change compared to vehicle (CD11b+Ly6Clow anti-fibrotic myeloid cells),[2]; 100 mg/kg po twice/day,−41.2%
same,% of viable cells (CD11b+Ly6Clow anti-fibrotic myeloid cells),[2]; 100 mg/kg po twice/day,16** %
same,inhibition of recruitment of anti-fibrotic myeloid cells compared with vehicle,"[2]; both carbidopa doses (columns 5, 6 of FIG. 5B)",less than 50%
same,relative levels of pro- and anti-fibrotic myeloid cells,[3],in favour of anti-fibrotic myeloid cells
same,% change compared to vehicle (lymphoid CD4+CD8- T cells),[4]; [7],−51.4%
same,% of viable cells (lymphoid CD4+CD8- T cells),[4]; [7],7.1** %
same,reduction of recruitment of lymphoid CD4+CD8- T cells compared with vehicle,[4]; [8],over 33.3%
same,% change compared to vehicle (lymphoid CD4-CD8- DN T cells),[5]; [7],−56.4%
same,% of viable cells (lymphoid CD4-CD8- DN T cells),[5]; [7],14.2** %
same,reduction of recruitment of lymphoid DN T cells compared with vehicle,[5]; [8],~50%
same,TNF mRNA level,TNF mRNA; 50 mg/kg po twice/day,0.74
same,effect on the level of TNF mRNA,TNF mRNA,No significant effect
same,Lgals3 mRNA level,Lgals3 mRNA; 50 mg/kg po twice/day,0.66
same,effect on the level of Lgals3 mRNA,Lgals3 mRNA,no significant effect
same,CD53 mRNA level,CD53 mRNA; 50 mg/kg po twice/day,0.46**
same,reduction of the level of CD53 mRNA,CD53 mRNA; [9],52.6%
same,CD48 mRNA level,CD48 mRNA; 50 mg/kg po twice/day,0.86
same,effect on the level of CD48 mRNA,CD48 mRNA,no significant effect
same,CD11b mRNA level,CD11b mRNA; 50 mg/kg po twice/day,0.58*
same,reduction of the level of CD11b mRNA,CD11b mRNA; [9],42%
same,% change compared to vehicle (TGFβ mRNA),TGFβ mRNA; 50 mg/kg po twice/day,−34.7%
same,TGFβ mRNA,TGFβ mRNA; 50 mg/kg po twice/day,0.79
same,reduction of the TGFβ mRNA level (fraction in words),"TGFβ mRNA; treatment alone, muscle of mdx mice",over a third
same,effect on IL-6 mRNA level,IL-6 mRNA,No effects
same,effect on Mpeg1 mRNA level,Mpeg1 mRNA,No effects
same,effect on Ly6C1 mRNA level,Ly6C1 mRNA,No effects
